Here are results for 26 substances from the OligoGym collection.

HELM strings list units from the 5' end as sugar, base in round brackets, then linkage (d deoxyribose, r ribose, m 2'-O-methyl, p phosphodiester). Strings are as the collection lists them; they lack the last nucleoside at the 3' end of the tested compound. [moe] = 2'-O-(2-methoxyethyl) (MOE); [sp] = phosphorothioate linkage; [m5C] = 5-methylcytosine

The target in the series is SCN2A. Kind of series: mouse, dose not given. The conditions noted are these: ASO.
As to “RNA1{[moe](T)[sp].[moe](G)p.[moe]([m5C])p.[moe]([m5C])p.[moe](A)p.[moe](T)p.d(T)[sp].d(T)[sp].d([m5C])[sp].d(T)[sp].d(A)[sp].d(T)[sp].d(A)[sp].d(A)[sp].d([m5C])[sp].d(T)[sp].[moe]([m5C])p.[moe](A)[sp].[moe](G)}$$$$ (last 3' nucleoside missing)”, the 3 h FOB score turned out to be 0 score 0-7. In the case of “RNA1{[moe](T)[sp].[moe](T)p.[moe](G)p.[moe](A)p.[moe]([m5C])p.d([m5C])[sp].d(A)[sp].d([m5C])[sp].d(G)[sp].d([m5C])[sp].d(T)[sp].d(T)[sp].d(A)[sp].d([m5C])[sp].d(A)[sp].[moe](T)p.[moe]([m5C])p.[moe](A)[sp].[moe](A)}$$$$ (last 3' nucleoside missing)” it was 2 score 0-7; in that of “RNA1{[moe](T)[sp].[moe](T)p.[moe](G)p.[moe](G)p.[moe](G)p.d(T)[sp].d([m5C])[sp].d(T)[sp].d([m5C])[sp].d(T)[sp].d(T)[sp].d(A)[sp].d(G)[sp].d([m5C])[sp].d(T)[sp].[moe](T)p.[moe](T)p.[moe]([m5C])[sp].[moe](T)}$$$$ (last 3' nucleoside missing)”, 2.67 score 0-7; in that of “RNA1{[moe](T)[sp].[moe](T)p.[moe](T)p.[moe](G)p.[moe](G)p.d(G)[sp].d(T)[sp].d([m5C])[sp].d(T)[sp].d([m5C])[sp].d(T)[sp].d(T)[sp].d(A)[sp].d(G)[sp].d([m5C])[sp].[moe](T)p.[moe](T)p.[moe](T)[sp].[moe]([m5C])}$$$$ (last 3' nucleoside missing)”, 3.33 score 0-7. “RNA1{[moe](T)[sp].[moe](T)p.[moe](T)p.[moe](G)p.[moe]([m5C])p.[moe]([m5C])p.d(A)[sp].d(T)[sp].d(T)[sp].d(T)[sp].d([m5C])[sp].d(T)[sp].d(A)[sp].d(T)[sp].d(A)[sp].d(A)[sp].[moe]([m5C])p.[moe](T)[sp].[moe]([m5C])}$$$$ (last 3' nucleoside missing)”: the 3 h FOB score came out at 0 score 0-7. Regarding “RNA1{[moe](T)[sp].[moe](T)p.[moe](T)p.[moe](G)p.d(G)[sp].d(G)[sp].d([m5C])[sp].d([m5C])[sp].d(A)[sp].d(T)[sp].d(T)[sp].d(T)[sp].d(T)[sp].d([m5C])[sp].[moe](A)p.[moe](T)p.[moe]([m5C])p.[moe](A)[sp].[moe](T)}$$$$ (last 3' nucleoside missing)”, the 3 h FOB score is 0 score 0-7. Substance “RNA1{[moe](T)[sp].[moe](T)p.[moe]([m5C])p.[moe](T)p.[moe](A)p.[moe](T)p.d(T)[sp].d(T)[sp].d(T)[sp].d(A)[sp].d(T)[sp].d(A)[sp].d(A)[sp].d(A)[sp].d(T)[sp].d(G)[sp].[moe]([m5C])p.[moe]([m5C])[sp].[moe](G)}$$$$ (last 3' nucleoside missing)” gave a 3 h FOB score of 3 score 0-7.

For the substance “RNA1{[moe](T)[sp].[moe](T)p.[moe]([m5C])p.[moe](T)p.[moe](A)p.d(T)[sp].d(T)[sp].d(T)[sp].d(T)[sp].d(A)[sp].d(T)[sp].d(A)[sp].d(A)[sp].d(A)[sp].d(T)[sp].[moe](G)p.[moe]([m5C])p.[moe]([m5C])[sp].[moe](G)}$$$$ (last 3' nucleoside missing)”, the 3 h FOB score was 0 score 0-7.

“RNA1{[moe](T)[sp].[moe](T)p.[moe]([m5C])p.[moe](T)p.[moe](G)p.[moe]([m5C])p.d(A)[sp].d(T)[sp].d(G)[sp].d(T)[sp].d(A)[sp].d(A)[sp].d([m5C])[sp].d([m5C])[sp].d(T)[sp].d(T)[sp].[moe](T)p.[moe](A)[sp].[moe](T)}$$$$ (last 3' nucleoside missing)” came in with a 3 h FOB score of 0 score 0-7.

Substance “RNA1{[moe](T)[sp].[moe](T)p.[moe]([m5C])p.[moe](T)p.[moe](G)p.d([m5C])[sp].d(A)[sp].d(T)[sp].d(G)[sp].d(T)[sp].d(A)[sp].d(A)[sp].d([m5C])[sp].d([m5C])[sp].d(T)[sp].[moe](T)p.[moe](T)p.[moe](A)[sp].[moe](T)}$$$$ (last 3' nucleoside missing)” registered a 3 h FOB score of 1 score 0-7.

The substance “RNA1{[moe](T)[sp].[moe](T)p.[moe]([m5C])p.[moe](T)p.d(A)[sp].d(T)[sp].d(T)[sp].d(T)[sp].d(T)[sp].d(A)[sp].d(T)[sp].d(A)[sp].d(A)[sp].d(A)[sp].[moe](T)p.[moe](G)p.[moe]([m5C])p.[moe]([m5C])[sp].[moe](G)}$$$$ (last 3' nucleoside missing)” came in with a 3 h FOB score of 1 score 0-7.

Take “RNA1{[moe](T)[sp].[moe](T)p.[moe]([m5C])p.[moe](T)p.d(G)[sp].d([m5C])[sp].d(A)[sp].d(T)[sp].d(G)[sp].d(T)[sp].d(A)[sp].d(A)[sp].d([m5C])[sp].d([m5C])[sp].[moe](T)p.[moe](T)p.[moe](T)p.[moe](A)[sp].[moe](T)}$$$$ (last 3' nucleoside missing)”: the 3 h FOB score was found to be 1 score 0-7. Take “RNA1{[moe](T)[sp].[moe]([m5C])p.[moe](A)p.[moe](G)p.[moe]([m5C])p.[moe](A)p.d(T)[sp].d(G)[sp].d(T)[sp].d(T)[sp].d(T)[sp].d(A)[sp].d(T)[sp].d([m5C])[sp].d(T)[sp].d(T)[sp].[moe](A)p.[moe](G)[sp].[moe](T)}$$$$ (last 3' nucleoside missing)”: the 3 h FOB score stood at 0 score 0-7. “RNA1{[moe](T)[sp].[moe]([m5C])p.[moe](A)p.[moe](G)p.d([m5C])[sp].d(A)[sp].d(T)[sp].d(G)[sp].d(T)[sp].d(T)[sp].d(T)[sp].d(A)[sp].d(T)[sp].d([m5C])[sp].[moe](T)p.[moe](T)p.[moe](A)p.[moe](G)[sp].[moe](T)}$$$$ (last 3' nucleoside missing)” gave a 3 h FOB score of 2.33 score 0-7. Turning to “RNA1{[moe](T)[sp].[moe]([m5C])p.[moe](A)p.[moe](T)p.[moe](G)p.[moe]([m5C])p.d(A)[sp].d(T)[sp].d(A)[sp].d(A)[sp].d(T)[sp].d([m5C])[sp].d([m5C])[sp].d([m5C])[sp].d(A)[sp].d(T)[sp].[moe](T)p.[moe](A)[sp].[moe](T)}$$$$ (last 3' nucleoside missing)”, the 3 h FOB score was found to be 0 score 0-7.

Take “RNA1{[moe](T)[sp].[moe]([m5C])p.[moe](A)p.[moe](T)p.[moe](G)p.d([m5C])[sp].d(A)[sp].d(T)[sp].d(A)[sp].d(A)[sp].d(T)[sp].d([m5C])[sp].d([m5C])[sp].d([m5C])[sp].d(A)[sp].[moe](T)p.[moe](T)p.[moe](A)[sp].[moe](T)}$$$$ (last 3' nucleoside missing)”: the 3 h FOB score stood at 0 score 0-7. In turn, “RNA1{[moe](T)[sp].[moe]([m5C])p.[moe](A)p.[moe](T)p.d(G)[sp].d([m5C])[sp].d(A)[sp].d(T)[sp].d(A)[sp].d(A)[sp].d(T)[sp].d([m5C])[sp].d([m5C])[sp].d([m5C])[sp].[moe](A)p.[moe](T)p.[moe](T)p.[moe](A)[sp].[moe](T)}$$$$ (last 3' nucleoside missing)” showed a 3 h FOB score of 0 score 0-7.

Turning to “RNA1{[moe](T)[sp].[moe]([m5C])p.[moe](T)p.[moe](A)[sp].d(T)[sp].d(T)[sp].d(T)[sp].d(T)[sp].d(A)[sp].d(T)[sp].d(A)[sp].d(A)[sp].[moe](A)p.[moe](T)p.[moe](G)p.[moe]([m5C])[sp].[moe]([m5C])}$$$$ (last 3' nucleoside missing)”, the 3 h FOB score was determined as 1 score 0-7. Turning to “RNA1{[moe](T)[sp].[moe]([m5C])p.[moe](T)p.[moe](A)p.[moe](T)[sp].d(T)[sp].d(T)[sp].d(T)[sp].d(A)[sp].d(T)[sp].d(A)[sp].d(A)[sp].d(A)[sp].[moe](T)p.[moe](G)p.[moe]([m5C])[sp].[moe]([m5C])}$$$$ (last 3' nucleoside missing)”, the 3 h FOB score was 1.33 score 0-7.

The substance “RNA1{[moe](T)[sp].[moe]([m5C])p.[moe](T)p.[moe](A)p.[moe](T)p.[moe](T)[sp].d(T)[sp].d(T)[sp].d(A)[sp].d(T)[sp].d(A)[sp].d(A)[sp].d(A)[sp].d(T)[sp].[moe](G)p.[moe]([m5C])[sp].[moe]([m5C])}$$$$ (last 3' nucleoside missing)” registered a 3 h FOB score of 1 score 0-7.

On to “RNA1{[moe](T)[sp].[moe]([m5C])p.[moe](T)p.[moe](G)[sp].d([m5C])[sp].d(A)[sp].d(T)[sp].d(G)[sp].d(T)[sp].d(A)[sp].d(A)[sp].d([m5C])[sp].[moe]([m5C])p.[moe](T)p.[moe](T)p.[moe](T)[sp].[moe](A)}$$$$ (last 3' nucleoside missing)”, for which the 3 h FOB score came out at 2 score 0-7. For the substance “RNA1{[moe](T)[sp].[moe]([m5C])p.[moe](T)p.[moe](G)p.[moe]([m5C])[sp].d(A)[sp].d(T)[sp].d(G)[sp].d(T)[sp].d(A)[sp].d(A)[sp].d([m5C])[sp].d([m5C])[sp].[moe](T)p.[moe](T)p.[moe](T)[sp].[moe](A)}$$$$ (last 3' nucleoside missing)”, the 3 h FOB score amounted to 1 score 0-7. Consider “RNA1{[moe](T)[sp].[moe]([m5C])p.[moe](T)p.[moe](G)p.[moe]([m5C])p.[moe](A)[sp].d(T)[sp].d(G)[sp].d(T)[sp].d(A)[sp].d(A)[sp].d([m5C])[sp].d([m5C])[sp].d(T)[sp].[moe](T)p.[moe](T)[sp].[moe](A)}$$$$ (last 3' nucleoside missing)”, for which the 3 h FOB score was 0.33 score 0-7. Then “RNA1{[moe](T)[sp].[moe]([m5C])p.[moe](T)p.[moe](G)p.[moe]([m5C])p.[moe](A)p.d(T)[sp].d(G)[sp].d(T)[sp].d(A)[sp].d(A)[sp].d([m5C])[sp].d([m5C])[sp].d(T)[sp].d(T)[sp].d(T)[sp].[moe](A)p.[moe](T)[sp].[moe](A)}$$$$ (last 3' nucleoside missing)”, with 0 score 0-7; and “RNA1{[moe](T)[sp].[moe]([m5C])p.[moe](T)p.[moe](G)p.[moe]([m5C])p.d(A)[sp].d(T)[sp].d(G)[sp].d(T)[sp].d(A)[sp].d(A)[sp].d([m5C])[sp].d([m5C])[sp].d(T)[sp].d(T)[sp].[moe](T)p.[moe](A)p.[moe](T)[sp].[moe](A)}$$$$ (last 3' nucleoside missing)”, with 0 score 0-7; and “RNA1{[moe](T)[sp].[moe]([m5C])p.[moe](T)p.[moe](G)p.d([m5C])[sp].d(A)[sp].d(T)[sp].d(G)[sp].d(T)[sp].d(A)[sp].d(A)[sp].d([m5C])[sp].d([m5C])[sp].d(T)[sp].[moe](T)p.[moe](T)p.[moe](A)p.[moe](T)[sp].[moe](A)}$$$$ (last 3' nucleoside missing)”, with 1 score 0-7.
